Laboratory results as given in patent publication US3983239A, “Hexahydro-γ-carboline derivatives and their salts” (priority 1974, dated 1976).
Entries after “also recorded” stand apart in the source; their conditions may differ. Like-named read-outs stand apart in the source and are kept apart here.

What was measured:
[1] = tested on: methamphetamine-induced stereotypy; test: Potentiation of methamphetamine-induced stereotypy; format: in vivo, male Wistar HLA rats; set-up: key: ---: Marked antagonism; --: Moderate antagonism; -: Slight antagonism; 0: No interaction; +: Slight potentiation; ++: Moderate potentiation; +++: Marked potentiation; conditions: methamphetamine 2 mg/kg i.p.
Procedure: 1. Potentiation of methamphetamine-induced stereotypy
This test was carried out by a modified method of R. T. Naylor (Life Sci., Vol. 10, page 909, 1971).
To male Wistar HLA rats, weighing 200 to 250 g (each group: 6 rats), were intraperitoneally administered the compounds to be tested. After 20 minutes, methamphetamine (2 mg/kg) was intraperitoneally administered to the test animals, and then the appeared stereotypy was observed. The effects of the test compounds were evaluated by the intensity of the stereotypy and the termination thereof.

locomotion [2] = test: Inhibiting activity of locomotion, mice (Animex method); format: in vivo; conditions: Mus musculus, po; mice, p.o.; read-out: ED50 value, inhibiting activity of locomotion
locomotion [3] = test: Inhibiting activity of locomotion, rats (Open-field method); format: in vivo; conditions: Rattus norvegicus, rats, read-out: ED50 value, inhibiting activity of locomotion
Source text: 3) Open-field method [C.S. Hall; J. Comp. Physiol. Psychol.

[4] = tested on: conditioned avoidance response; test: Inhibiting activity of conditioned avoidance response, mice; format: in vivo; conditions: Mus musculus, po; mice, p.o.; read-out: ED50 value, inhibiting activity of conditioned avoidance response
[5] = tested on: conditioned avoidance response; test: Inhibiting activity of conditioned avoidance response, rats (Shuttle box method); format: in vivo; conditions: Rattus norvegicus, po; rats, p.o.; read-out: ED50 value, inhibiting activity of conditioned avoidance response
catalepsy = test: Cataleptogenic activity, rats; format: in vivo; conditions: Rattus norvegicus, po; rats, p.o.; read-out: ED50 value, cataleptogenic activity
muscle relaxant activity = test: Muscle relaxant activity, rats; format: in vivo; conditions: Rattus norvegicus, rats, read-out: ED50 value, muscle relaxant activity
self-stimulation = test: Inhibiting activity of self-stimulation, rats; format: in vivo; conditions: Rattus norvegicus, po; rats, p.o.; read-out: ED50 value, inhibiting activity of self-stimulation
Source text: 8) J. Olds et al; J. Comp. Physiol. Psychol., Vol. 47, page

Acute toxicity, mice = conditions: mouse, in vivo, observed 7 days
Source text: (§1) Male and female STD-dd Y mice, weighing 20 to 22 g (each group: 10 mice) and male Wistar HLA rats, weighing 250 to 300 g (each group: 10 to 20 rats) were used.

Acute toxicity, rats = conditions: rat, in vivo, male, observed 7 days
Source text: as §1

[6] = tested on: homovanillic acid (HVA) in brain; test: Effect on homovanillic acid (HVA) in brain; format: in vivo, male Wistar rats; conditions: Rattus norvegicus, read-out: dose that remarkably increased the HVA in the brain
Procedure: 3. Effect on homovanillic acid (HVA for short) in brain
This test was carried out by a modified method of T. Karasawa et al. [Life Sci., Vol. 15, page 1465 (1974)].
To male Wistar rats, weighing 160 to 200 g (each group: 5 rats), was administered 8-methyl-2-[γ-(p-fluorobenzoyl)propyl]-2,3,4,4a,5,9b-hexahydro-1H-pyrido[4,3-b]indole dihydrochloride (Compound A) intraperitoneally or orally. After 90 minutes in case of the intraperitoneal administration, or after 6 hours in case of the oral administration, the test animals were decapitated, and then the HVA in the brain was measured by a fluorometric method.

[7] = tested on: apomorphine-induced gnawing; test: Enhancement of apomorphine-induced gnawing; format: in vivo; conditions: 0.03-0.7 mg/kg s.c., rats
[8] = tested on: electroencephalogram (EEG); test: Activation of the electroencephalogram (EEG); format: in vivo; conditions: 5 mg/kg i.v., gallamine immobilized cats
central nervous system = test: Depression of the central nervous system (overall); conditions: in vivo
Source text: 2. Depression of the central nervous system The compounds of the present invention show the same central nervous system depressing pattern as the existing neuroleptics, such as an inhibiting activity of locomotion, an inhibiting activity of conditioned avoidance response, a cataleptogenic activity, a muscle relaxant activity, an inhibiting activity of self-stimulation, and an anti-methamphetamine activity in terms of locomotor activity.

[9] = cited from earlier work
amphetamine = conditions: in vivo; cited from earlier work

Row | SMILES | Stereotypy Intensity ([1]; 1.0 mg/kg i.p.) | Stereotypy Termination ([1]; 1.0 mg/kg i.p.) | Stereotypy Intensity ([1]; 2.0 mg/kg i.p.) | Stereotypy Termination ([1]; 2.0 mg/kg i.p.) | Stereotypy Intensity ([1]; 5.0 mg/kg i.p.) | Stereotypy Termination ([1]; 5.0 mg/kg i.p.) | Stereotypy Intensity ([1]; 10.0 mg/kg i.p.) | Stereotypy Termination ([1]; 10.0 mg/kg i.p.) | ED50 (locomotion [2]) [mg/kg] | ED50 (locomotion [3]; ip, i.p.) [mg/kg] | ED50 (locomotion [3]; po, p.o.) [mg/kg] | ED50 [4] [mg/kg] | ED50 [5] [mg/kg] | ED50 (catalepsy) [mg/kg] | ED50 (muscle relaxant activity; ip, i.p.) [mg/kg] | ED50 (muscle relaxant activity; po, p.o.) [mg/kg] | ED50 (self-stimulation) [mg/kg] | LD50 at 168 h (Acute toxicity, mice; ip, male) [mg/kg] | LD50 at 168 h (Acute toxicity, mice; iv, male) [mg/kg] | LD50 at 168 h (Acute toxicity, mice; po, male) [mg/kg] | other results
1 | Cc1ccc2c(c1)C1CN(CCCC(=O)c3ccc(F)cc3)CCC1N2.Cl.Cl (stereo not drawn) [Compound A, 8-Methyl-2-[γ-(p-fluorobenzoyl)propyl]-2,3,4,4a,5,9b-hexahydro-1H-pyrido[4,3-b]indole dihydrochloride] | 0 | 0 | ++ | ++ | +++ | +++ | +++ | +++ | 9.3 | 2.8 | 33.2 | 10 | 23.8 | 34 | 3.16 | 11.2 | 61.8 | 134 | 59 | 589 | LD50 at 168 h (Acute toxicity, mice; ip, female): 95 mg/kg; LD50 at 168 h (Acute toxicity, mice; po, female): 339 mg/kg; LD50 at 168 h (Acute toxicity, mice; sc, male): 373 mg/kg; LD50 at 168 h (Acute toxicity, rats; ip): 146 mg/kg; LD50 at 168 h (Acute toxicity, rats; iv): 51 mg/kg; LD50 at 168 h (Acute toxicity, rats; po): 812 mg/kg; LD50 at 168 h (Acute toxicity, rats; sc): 592 mg/kg; minimal effective dose ([6]; ip, 1.5 h, i.p., 90 minutes after administration): ≥ 5 mg/kg; minimal effective dose ([6]; po, 6 hours after administration): ≥ 13 mg/kg; incidence of gnawing after apomorphine [7]: increased the incidence of gnawing; spontaneous EEG, arousal time in the hippocampus [8]: prolongation of arousal time in the hippocampus; spontaneous EEG, cortex [8]: low-voltage high frequency in the cortex; central nervous system depressing activities (in words) (central nervous system; dihydrochloride): somewhat inferior to those of chlorpromazine; also recorded: almost comparable to those of clozapine; also recorded: far superior to those of dicarbine
2 | Cc1ccc2c(c1)C1CN(C)CCC1N2 (stereo not drawn) [Dicarbine, 2,8-dimethyl-2,3,4,4a,5,9b-hexahydro-1H-pyrido[4,3-b]indole] | 0 | 0 | + | ++ | ++ | +++ | +++ | +++ | 150 | 28.7 | > 200 | 119 | > 100 | > 100 | 60.3 | > 100 | > 100 | 153 | 79 | 357 | LD50 at 168 h (Acute toxicity, mice; sc, male): 237 mg/kg; central nervous system depressing activities (in words) (central nervous system): far weak in comparison with those of the present compounds; activity in clinical trials [9]: antipsychotic activity and a thymoleptic activity; activity against amphetamine (amphetamine): antagonism against amphetamine and also an activity of potentiating the amphetamine-induced stereotypy
